Structures are written as SMILES.

These results are taken from US20260115177A1, “MEDICINAL PRODUCTS AND METHODS FOR THE ALLEVIATION OF CANCER IMMUNOTHERA-PY-ASSOCIATED CYTOKINE RELEASE SYNDROME” (POOLBEG PHARMA (UK) LIMITED, priority 2023, published 2026).

The subject of assay [1] is CD19+ cancer cells. Kind of assay: CAR T cell killing of tumour cells in 24-hour co-culture (flow cytometry). It is filed as cell-based, human. The settings on record: high dose only, CAR T to cancer cell ratio 1:1. The text has this: Raji immortalized human B cell line CD19-expressing cancer cells (available from the American Type Culture Collection) are acquired and stable transfection of the Raji cell line is generated with an mCherry reporter protein to facilitate identification of the cancer cells within co-cultures by detection of the mCherry protein fluorescence by flow cytometry.
UR-13870, Ralimetinib or Acumapimod are each added to a culture of CD19+ cancer cells (using a micropipette to transfer the correct volume to achieve the desired final concentration in Table 2).
CAR T cells are then added to the same culture 5-10 minutes later. In brief, CAR T cell concentrations per ml are determined and used to aliquot the desired number of CAR T cells into the culture to achieve the described 1:1 CAR T to cancer cell ratio.
The co-culture containing CAR T cells and tumour cells is swirled gently to ensure homogenous dispersion of cells throughout the vessel. The resultant co-culture is incubated for 24 to 96 hours in a closed incubator at 37° C. with 5% CO2 and a suitably humid atmosphere.
Tumour cell death is observed by examining relative CAR T cell:tumour cell numbers by flow cytometry following 24 hour co-culture, as shown in FIG. 7.

Assay [2] deals with THP-1 monocytes. Kind of assay: IL-6 ELISA of THP-1 monocytes treated with sCAR. It is filed as cell-based, human. The settings on record: sCAR stimulation, 24 hours; concentrations of Table 2. As for the experimental part:
In Example 3 below, sCAR (or smCAR) is added using a micropipette to an in vitro culture of monocyte cells of the human monocytic cell line THP-1, available from the American Type Culture Collection. The culture is incubated in a closed incubator at 37° C. with 5% CO2 and a suitably humid atmosphere for approximately 24 hours, following which cytokine release is observed. p38 MAPK activation and cytokine release are confirmed by evaluation of the presence of IL-6 in THP-1 cells using an enzyme-linked immunosorbent assay (ELISA; for which a kit is suitably obtainable from Thermo Fisher Scientific of Kingfisher Dr, Swindon SN3 5BZ, UK).
(i) Monocytes sCAR (or smCAR), produced as described in Example 1 above, is added to a monoculture of THP-1 monocytes in the presence of UR-13870, Ralimetinib or Acumapimod at each of the concentrations shown in Table 2 above at 37° C., 5% CO2 and a suitably humid environment for 24 hours.
Supernatant levels of IL-6 from the THP-1 monocyte monoculture with sCAR (or smCAR) are determined by ELISA.

Assay [3] concerns PBMC humanized NSG-MHC I/II double knock-out mice with Raji-Luc CD19-expressing cancer cells. Briefly: In vivo (murine) model using anti-CD28 antibody for CRS induction. The arrangement: species or system mouse. The text has this: An outline of the timeline of the model is provided in FIG. 19; it commences on Study Day 0 and ends on Study Day 10. […] It thus models the effect of administering a p38 MAP kinase inhibitor prior to the onset of CRS in accordance with the present disclosure.
Anti-CD28 antibody acts as a super-agonist of T cells (i.e., strongly activates T cells) resulting in T cell-mediated tumour cell death, with a rapid consequent release of cytokines and knock-on effects for monocytes and endothelial cells; thus modelling CRS induced by various different types of T cell-involving cancer immunotherapy.
Thus, on Study Day 0, 30 female 6- to 8-week-old NSG-(KbDb)null (IA)null mice are irradiated at 100 cGy. Approximately 4 hours later, on the same day (Study Day 0) all mice are humanised by IV dosing with 15×10^6 human peripheral blood mononuclear cells (PBMCs).
On Study Day 5, all mice are intravenously dosed with 0.25×10^6 Raji-Luc CD19-expressing cancer cells (a Raji wild-type cell line with stable and high expression of luciferase, enabling detection of cancer burden by […]). Approximately 4 hours later, mice are imaged using in vivo […] imaging (IVIS). For IVIS, mice are IP injected with 150 mg/kg D-Luciferin. 10 minutes after the D-Luciferin injection, mice are imaged dorsal and ventral; auto exposure) using an IVIS Lumina system (obtainable from PerkinElmer of Chalfont Road. Seer Green, Beaconsfield, HP9 2FX, UK). Regions of interest (ROI) are drawn for each mouse to capture its whole body, and total flux (p/s) is reported. Tumour burden continues to be monitored by IVIS twice per week, starting on Study Day 5, until the end of the study. Daily clinical observation continues throughout the study, including observation of CRS, CRS being scored as follows:
On Study Day 6, 25 of the 30 mice are treated with 1 mg/kg anti-CD28.
As a control, a group consisting of the 5 remaining mice (“Group 1”) are not administered anti-CD28. Beginning on Study Day 4 and ending on Study Day 10, Group 1 receive treatment with 0.5% (w:v) HPMC, 0.1% (w:v) Tween 80 in sWFI (vehicle/control), administered BID at 5 mL/kg.
The 25 mice administered anti-CD28 are divided into groups of 5 mice per group. Administration of a control drug (Humira), vehicle or UR-13870 is carried out in accordance with the following protocol: • Group 2—Vehicle only, BID, beginning on Study Day 4 and ending on Study Day 10; • Group 3—UR-13870 (formulated in vehicle), 2 mg/kg, twice daily (BID) beginning on Study Day 4 and ending on Study Day 10; • Group 4—UR-13870 (formulated in vehicle), 10 mg/kg, twice daily (BID) beginning on Study Day 4 and ending on Study Day 10; • Group 5—UR-13870 (formulated in vehicle), 25 mg/kg, twice daily (BID) beginning on Study Day 4 and ending on Study Day 10; and • Group 6—Humira (formulated in PBS) (further, positive control) 5 mg/kg, once daily beginning on Study Day 4 and ending on Study Day 10.
Dosing of UR-13870 or vehicle is by subcutaneous injection. Subcutaneous injection sites are rotated for each dose (rotating among right flank, left flank, right inguinal region, left inguinal region). For UR-13870 and vehicle, AM and PM (BID) doses are scheduled at least 6 hours apart. Dosing of Humira is by intraperitoneal injection.
On Study Days 6, 9 and 10, blood is collected from each of the 30 mice in Groups 1-6 (a 50-200 μl blood sample from each mouse, each time), for flow cytometry analysis, including analysis of CD19+ cancer cells per ml; and cytokine measurement. It should be noted that, where relevant to BID dosed groups, blood collection is carried out between AM and PM dosing.
All mice in Groups 1-6 are euthanized by CO2 asphyxiation on Study Day 10. […]

For the compound `OCCCn1cc2c(-c3ccc(F)cc3)c(-c3ccncc3)c(-c3ccc(F)cc3)nc2n1` [UR-13870, 6-bis(4-fluorophenyl)-5-(4-pyridinyl)-2Hpyrazolo[3,4-b]pyridine-2-propanol], the “CAR T cell-induced cancer cell death (percentage of residual tumour cells in the co-culture)” value in assay [1] is reported as “maintain CAR T cell-induced cancer cell death”. The “IL-6 secretion by THP-1 monocytes” value in assay [2] is given as “significantly reduce”. Moreover, in assay [3] (Day 5 to Day 7), the “tumour cell proliferation (tumour burden by IVIS)” value is reported as “does not increase”. In addition, in assay [3] (Day 5 to Day 7, tumour burden by IVIS), the “T cell mediated cancer cell death” value is on record as “maintains”. In addition, the CRS scores result in assay [3] (anti-CD28 1 mg/kg, UR-13870 2, 10, 25 mg/kg BID s.c., Humira 5 mg/kg once daily i.p., Study Day 4 to 10) is listed as “significantly reduces”. Besides, in assay [3] (blood serum, Luminex), the IFNγ entry is on record as “reduced”, the IL-2 entry is reported as “reduced”, the IL-4 entry is “reduced” and the IL-6 entry was “reduced”. Besides, in assay [3] (blood serum, Luminex), the IL-8 result is “reduced”, the IL-10 entry is “reduced”, the MIP-1α entry is recorded as “reduced” and the TNF a result is reported as “reduced”. The “hCD45+ CD3+ hCD4+ cells/μl” value in assay [3] (blood, day 9) is given as “Neither UR-13870 or Humira had a significant impact”. In addition, in assay [3] (blood, days 9 and 10), the “hCD45+ cells/μl” value is “Neither UR-13870 or Humira had a significant impact” and the “hCD45+ hCD3+ cells/μl” value was “Neither UR-13870 or Humira had a significant impact”. Besides, the “proliferation of tumour cells (counts of CD19+ cancer cells per ml)” value in assay [3] (blood, flow cytometry) was “neither UR-13870 or Humira increased proliferation of tumour cells”. Moreover, the “mean CD19+ cancer cells per ml compared to CD28 stimulation only” value in assay [3] (days 9 and 10 (especially day 10)) is given as “downward trend”.
